Measurements reported in patent US8648086B2, “5,6-bicyclic heteroaryl-containing urea compounds as kinase inhibitors” (Ascepion Pharmaceuticals, Inc., priority 2009, dated 2014).
Counter-ions that a name gives are not always drawn.

How the values were obtained:
c-Met = target: T1, c-Met (Homo sapiens, UniProt P08581); test: c-Met cell-based assay (phospho-c-Met ELISA, A549 cells); conditions: compound at 100 nM
T1 construct: endogenous in cells; host or cells: A549 cells
Method: A procedure for standard cell-based assay for c-Met kinase activity can be used to test compounds of this invention for their inhibitory effect on this kinase and to identify c-Met antagonists.
Specifically, a compound to be tested was first dissolved in DMSO to a concentration of 10 mM and stored at −20° C. The activity of c-Met in cells depends on the phosphorylation level at its intracellular domain induced by its ligand, Hepatocyte growth factor (HGF). In order to induce the cells to produce phosphate c-Met, paracrine HGF-dependent NSCLC (None Small Cell Lung Cancer) A549 cells were grown in DMEM with 10% FBS.
To screen compounds of this invention for their inhibitory effect on c-Met kinase, the ELISA kit (R&D Systems) was used. One day before screening procedure, A549 cells were grown in DMEM without the presence of serum. On the day of screening procedure, various concentrations of compounds (from 0.5 nM to 500 nM) were added into the culture medium. Two hours later, 20% of FBS (Fetal Bovine Serum) was added into the medium to stimulate the expression of phosphor-c-Met. After 20 minutes, cell lysate from approximately 5×10^5 A549 cells were reacted with anti-phosphor-c-Met or anti total c-Met antibody in 96 well plates. In the presence of detection antibody, the phosphor-c-Met or total c-Met can be detected with Streptavidin-HRP (R&D Systems) followed by chemiluminescence detection.

VEGFR2 = target: T2, VEGFR2 (Homo sapiens, UniProt P35968); test: VEGFR2 cell-based assay (phospho-VEGFR2 ELISA, transfected CHO cells); conditions: compound at 100 nM, read-out: % VEGFR2 kinase activity remains
T2 construct: expressed in transfected cells; host or cells: CHO cells, pcDNA3.1 plasmid
T2 sequence (P35968 20-1356, species assumed): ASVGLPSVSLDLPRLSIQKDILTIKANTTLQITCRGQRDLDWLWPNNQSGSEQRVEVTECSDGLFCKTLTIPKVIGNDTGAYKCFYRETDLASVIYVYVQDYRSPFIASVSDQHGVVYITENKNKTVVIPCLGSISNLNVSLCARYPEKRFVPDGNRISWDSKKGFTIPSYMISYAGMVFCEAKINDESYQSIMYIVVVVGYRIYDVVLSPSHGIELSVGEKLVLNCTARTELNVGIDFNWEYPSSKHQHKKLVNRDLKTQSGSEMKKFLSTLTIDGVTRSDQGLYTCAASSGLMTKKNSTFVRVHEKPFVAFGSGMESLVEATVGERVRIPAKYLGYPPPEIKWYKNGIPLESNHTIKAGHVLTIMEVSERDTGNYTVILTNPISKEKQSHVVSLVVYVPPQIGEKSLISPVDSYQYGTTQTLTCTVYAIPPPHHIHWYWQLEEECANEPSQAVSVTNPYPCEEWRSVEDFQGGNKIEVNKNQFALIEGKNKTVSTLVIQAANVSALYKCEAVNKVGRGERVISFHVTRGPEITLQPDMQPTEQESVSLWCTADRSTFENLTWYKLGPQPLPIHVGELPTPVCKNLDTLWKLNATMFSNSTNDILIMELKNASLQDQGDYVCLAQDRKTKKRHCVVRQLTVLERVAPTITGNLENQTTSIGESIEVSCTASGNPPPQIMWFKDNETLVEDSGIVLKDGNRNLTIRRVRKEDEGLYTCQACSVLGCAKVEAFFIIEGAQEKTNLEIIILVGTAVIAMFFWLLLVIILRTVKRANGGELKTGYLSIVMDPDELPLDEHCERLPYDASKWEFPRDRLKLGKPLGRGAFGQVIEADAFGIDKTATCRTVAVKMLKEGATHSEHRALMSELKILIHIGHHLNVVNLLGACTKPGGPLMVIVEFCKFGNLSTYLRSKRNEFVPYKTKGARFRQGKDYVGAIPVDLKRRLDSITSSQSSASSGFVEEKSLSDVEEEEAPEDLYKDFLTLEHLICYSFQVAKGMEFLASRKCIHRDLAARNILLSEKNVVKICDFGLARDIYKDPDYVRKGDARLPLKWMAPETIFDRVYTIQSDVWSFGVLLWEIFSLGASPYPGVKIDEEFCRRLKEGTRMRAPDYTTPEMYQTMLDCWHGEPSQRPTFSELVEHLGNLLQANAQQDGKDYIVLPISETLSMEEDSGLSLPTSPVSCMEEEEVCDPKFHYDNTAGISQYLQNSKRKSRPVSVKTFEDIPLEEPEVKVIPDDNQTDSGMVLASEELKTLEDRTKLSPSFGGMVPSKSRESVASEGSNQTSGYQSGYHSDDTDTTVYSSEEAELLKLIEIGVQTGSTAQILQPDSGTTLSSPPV
Method: A standard cell-based assay for VEGFR2 kinase activity can be used to test compounds of this invention and to identify VEGFR2 antagonists.
Specifically, a compound to be tested was first dissolved in DMSO to a concentration of 10 mM and stored at −20° C. The activity of VEGFR2 in cells depends on the phosphorylation level at its intracellular domain induced by the ligand. In order to express VEGFR2 in the cells, full length VEGFR2 sequence was cloned into PC-DNA3.1 vector, the plasmid was then transfected into CHO cells. After 48 hours, the expression of VEGFR2 in transfected CHO cells was confirmed by regular western blotting.
To screen the compounds of this invention, the ELISA kit (R&D Systems) was used. One day before the screening, CHO cells transfected with full length VEGFR2 plasmid were grown in DMEM medium without the presence of serum. On the day of screening, various concentrations of compounds (From 0.5 nM to 500 nM) were added into DMEM medium. Two hours later, 20% of FBS (Fetal Bovine Serum) was added into the medium to stimulate the production of phosphor-VEGFR2. Cell lysate from approximately 5×10^5 transfected CHO cells were reacted with anti-phosphor-VEGFR2 or anti-total VEGFR2 antibody in 96 well plates. In the presence of detection antibody, the phosphor-VEGFR2 or total VEGFR2 were detected with Streptavidin-HRP (R&D Systems) followed by chemiluminescence detection.

T1 sequence (P08581 25-1390): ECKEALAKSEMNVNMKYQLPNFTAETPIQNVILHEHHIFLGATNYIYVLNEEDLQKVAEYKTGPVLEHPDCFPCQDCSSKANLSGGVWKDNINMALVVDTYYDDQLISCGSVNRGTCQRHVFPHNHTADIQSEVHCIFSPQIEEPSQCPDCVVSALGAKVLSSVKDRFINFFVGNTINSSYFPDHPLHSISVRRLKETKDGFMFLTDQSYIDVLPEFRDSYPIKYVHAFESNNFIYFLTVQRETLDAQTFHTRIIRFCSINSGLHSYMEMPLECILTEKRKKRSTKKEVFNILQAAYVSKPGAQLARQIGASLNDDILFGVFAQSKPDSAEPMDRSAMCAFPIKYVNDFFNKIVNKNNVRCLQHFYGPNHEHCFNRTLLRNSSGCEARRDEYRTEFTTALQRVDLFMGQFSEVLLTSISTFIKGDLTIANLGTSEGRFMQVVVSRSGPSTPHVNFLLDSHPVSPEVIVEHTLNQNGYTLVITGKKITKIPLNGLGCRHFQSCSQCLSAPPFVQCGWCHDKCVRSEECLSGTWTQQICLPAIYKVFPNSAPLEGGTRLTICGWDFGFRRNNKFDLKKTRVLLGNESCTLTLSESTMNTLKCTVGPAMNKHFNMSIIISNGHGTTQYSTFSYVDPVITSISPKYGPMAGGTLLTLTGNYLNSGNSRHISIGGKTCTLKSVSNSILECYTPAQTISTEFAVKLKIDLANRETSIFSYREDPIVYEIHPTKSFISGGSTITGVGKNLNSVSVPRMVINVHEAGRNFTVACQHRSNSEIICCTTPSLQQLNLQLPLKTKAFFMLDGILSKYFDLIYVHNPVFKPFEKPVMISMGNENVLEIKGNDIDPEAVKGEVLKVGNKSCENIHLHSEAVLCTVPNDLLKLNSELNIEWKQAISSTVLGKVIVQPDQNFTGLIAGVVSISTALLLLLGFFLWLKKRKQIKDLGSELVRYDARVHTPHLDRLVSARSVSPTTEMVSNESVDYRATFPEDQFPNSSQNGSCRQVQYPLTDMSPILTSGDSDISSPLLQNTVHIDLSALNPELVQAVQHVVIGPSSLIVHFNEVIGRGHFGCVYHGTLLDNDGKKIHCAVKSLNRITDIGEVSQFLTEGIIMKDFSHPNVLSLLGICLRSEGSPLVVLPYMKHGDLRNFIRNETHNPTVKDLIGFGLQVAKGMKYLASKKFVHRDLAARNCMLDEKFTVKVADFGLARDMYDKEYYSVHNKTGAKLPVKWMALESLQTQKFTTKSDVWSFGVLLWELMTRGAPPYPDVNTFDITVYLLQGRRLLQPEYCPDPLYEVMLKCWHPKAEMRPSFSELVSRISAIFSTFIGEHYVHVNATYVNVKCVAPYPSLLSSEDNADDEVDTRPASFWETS

remaining activity at 0.1 µM (VEGFR2) [%]	SMILES	% c-Met kinase activity remains (c-Met)
≥ 70	Cc1ccc(NC(=O)Nc2cccc3c2ccn3Cc2c[nH]c3ncccc23)cc1.Cl [Example 16, 1-(4-Methylphenyl)-3-[1-(1H-pyrrolo[2,3-b]pyridin-3-ylmethyl)-1H-indol-4-yl]urea hydrochloride]	A (the percentage of kinase activity remains is below 70%)
< 70	Cl.O=C(Nc1ccccc1OC(F)(F)F)Nc1cccc2c1ccn2Cc1c[nH]c2ncccc12 [Example 20, 1-(2-Trifluoromethoxyphenyl)-3-[1-(1H-pyrrolo[2,3-b]pyridin-3-ylmethyl)-1H-indol-4-yl]urea hydrochloride]	A (the percentage of kinase activity remains is below 70%)
≥ 70	COc1ccccc1NC(=O)Nc1cccc2c1ccn2Cc1ccnc2[nH]ccc12.Cl [Example 46, 1-(2-Methoxyphenyl)-3-[1-(1H-pyrrolo[2,3-b]pyridin-4-ylmethyl)-1H-indol-4-yl]urea hydrochloride]	B (the percentage is greater or equal to 70%)
< 70	Cl.O=C(Nc1ccccc1C(F)(F)F)Nc1cccc2c1ccn2Cc1c[nH]c2ncccc12 [Example 23, 1-(2-Trifluoromethylphenyl)-3-[1-(1H-pyrrolo[2,3-b]pyridin-3-ylmethyl)-1H-indol-4-yl]urea hydrochloride]	A (the percentage of kinase activity remains is below 70%)
< 70	COc1cccc(NC(=O)Nc2cccc3c2ccn3Cc2c[nH]c3ncccc23)c1.Cl [Example 18, 1-(3-Methoxyphenyl)-3-[1-(1H-pyrrolo[2,3-b]pyridin-3-ylmethyl)-1H-indol-4-yl]urea hydrochloride]	A (the percentage of kinase activity remains is below 70%)
< 70	O=C(Nc1ccccc1Cl)Nc1cccc2c1ccn2Cc1ccnc2[nH]ccc12 [Example 37, 1-(2-Chlorophenyl)-3-[1-(1H-pyrrolo[2,3-b]pyridin-4-ylmethyl)-1H-indol-4-yl]urea hydrochloride]	A (the percentage of kinase activity remains is below 70%)
< 70	Cl.O=C(Nc1ccccc1Br)Nc1cccc2c1ccn2Cc1ccnc2[nH]ccc12 [Example 40, 1-(2-Bromophenyl)-3-[1-(1H-pyrrolo[2,3-b]pyridin-4-ylmethyl)-1H-indol-4-yl]urea hydrochloride]	A (the percentage of kinase activity remains is below 70%)
< 70	Cl.O=C(Nc1ccc(F)cc1)Nc1cccc2c1ccn2Cc1c[nH]c2ncccc12 [Example 7, 1-(4-Fluorophenyl)-3-[1-(1H-pyrrolo[2,3-b]pyridin-3-ylmethyl)-1H-indol-4-yl]urea hydrochloride]	A (the percentage of kinase activity remains is below 70%)
< 70	Cl.N#Cc1ccc(NC(=O)Nc2cccc3c2ccn3Cc2c[nH]c3ncccc23)cc1 [Example 27, 1-(4-Cyanophenyl)-3-[1-(1H-pyrrolo[2,3-b]pyridin-3-ylmethyl)-1H-indol-4-yl]urea hydrochloride]	A (the percentage of kinase activity remains is below 70%)
< 70	COc1ccccc1NC(=O)Nc1cccc2c1ccn2Cc1c[nH]c2ncccc12.Cl [Example 17, 1-(2-Methoxyphenyl)-3-[1-(1H-pyrrolo[2,3-b]pyridin-3-ylmethyl)-1H-indol-4-yl]urea hydrochloride]	A (the percentage of kinase activity remains is below 70%)
< 70	O=C(Nc1ccc(Cl)cc1)Nc1cccc2c1ccn2Cc1ccnc2[nH]ccc12 [Example 39, 1-(4-Chlorophenyl)-3-[1-(1H-pyrrolo[2,3-b]pyridin-4-ylmethyl)-1H-indol-4-yl]urea hydrochloride]	A (the percentage of kinase activity remains is below 70%)
≥ 70	O=C(Nc1ccccc1Cl)Nc1cccc2c1ccn2Cc1c[nH]c2ncccc12 [Example 8, 1-(2-Chlorophenyl)-3-[1-(1H-pyrrolo[2,3-b]pyridin-3-ylmethyl)-1H-indol-4-yl]urea hydrochloride]	A (the percentage of kinase activity remains is below 70%)
< 70	Cl.O=C(Nc1ccc(Br)cc1)Nc1cccc2c1ccn2Cc1ccnc2[nH]ccc12 [Example 42, 1-(4-Bromophenyl)-3-[1-(1H-pyrrolo[2,3-b]pyridin-4-ylmethyl)-1H-indol-4-yl]urea hydrochloride]	B (the percentage is greater or equal to 70%)
< 70	Cl.O=C(Nc1ccccc1)Nc1cccc2c1ccn2Cc1ccnc2[nH]ccc12 [Example 33, 1-Phenyl-3-[1-(1H-pyrrolo[2,3-b]pyridin-4-ylmethyl)-1H-indol-4-yl]urea hydrochloride]	B (the percentage is greater or equal to 70%)
< 70	Cc1cccc(NC(=O)Nc2cccc3c2ccn3Cc2c[nH]c3ncccc23)c1.Cl [Example 15, 1-(3-Methylphenyl)-3-[1-(1H-pyrrolo[2,3-b]pyridin-3-ylmethyl)-1H-indol-4-yl]urea hydrochloride]	A (the percentage of kinase activity remains is below 70%)
< 70	Cc1ccc(NC(=O)Nc2cccc3c2ccn3Cc2ccnc3[nH]ccc23)cc1.Cl [Example 45, 1-(4-Methylphenyl)-3-[1-(1H-pyrrolo[2,3-b]pyridin-4-ylmethyl)-1H-indol-4-yl]urea hydrochloride]	A (the percentage of kinase activity remains is below 70%)
≥ 70	Cl.O=C(Nc1ccc(C(F)(F)F)cc1)Nc1cccc2c1ccn2Cc1c[nH]c2ncccc12 [Example 25, 1-(4-Trifluoromethylphenyl)-3-[1-(1H-pyrrolo[2,3-b]pyridin-3-ylmethyl)-1H-indol-4-yl]urea hydrochloride]	A (the percentage of kinase activity remains is below 70%)
≥ 70	Cl.O=C(Nc1ccccc1F)Nc1cccc2c1ccn2Cc1c[nH]c2ncccc12 [Example 5, 1-(2-Fluorophenyl)-3-[1-(1H-pyrrolo[2,3-b]pyridin-3-ylmethyl)-1H-indol-4-yl]urea hydrochloride]	A (the percentage of kinase activity remains is below 70%)
< 70	O=C(Nc1cccc(Cl)c1)Nc1cccc2c1ccn2Cc1c[nH]c2ncccc12 [Example 9, 1-(3-Chlorophenyl)-3-[1-(1H-pyrrolo[2,3-b]pyridin-3-ylmethyl)-1H-indol-4-yl]urea hydrochloride]	B (the percentage is greater or equal to 70%)
≥ 70	Cl.N#Cc1cccc(NC(=O)Nc2cccc3c2ccn3Cc2c[nH]c3ncccc23)c1 [Example 26, 1-(3-Cyanophenyl)-3-[1-(1H-pyrrolo[2,3-b]pyridin-3-ylmethyl)-1H-indol-4-yl]urea hydrochloride]	A (the percentage of kinase activity remains is below 70%)
≥ 70	Cl.O=C(Nc1ccccc1Br)Nc1cccc2c1ccn2Cc1c[nH]c2ncccc12 [Example 11, 1-(2-Bromophenyl)-3-[1-(1H-pyrrolo[2,3-b]pyridin-3-ylmethyl)-1H-indol-4-yl]urea hydrochloride]	A (the percentage of kinase activity remains is below 70%)
≥ 70	Cl.O=C(Nc1cccc(Br)c1)Nc1cccc2c1ccn2Cc1ccnc2[nH]ccc12 [Example 41, 1-(3-Bromophenyl)-3-[1-(1H-pyrrolo[2,3-b]pyridin-4-ylmethyl)-1H-indol-4-yl]urea hydrochloride]	B (the percentage is greater or equal to 70%)
